# Where two headings read alike, the source gives them in different places.
# Legend:
# [1] = system: p-STAT3 Y705; assay: western blotting of activated STAT3 in BTICs; assay type: cell-based, human; settings: for STAT3 activation (phosphorylation on tyrosine 705): 3 hours
# Experimental: BTIC spheres were enzymatically dissociated as described above and plated at 10^6 cells/2 mL of media. Cells were treated with vehicle (DMSO), pacritinib, TMZ, or a combination of pacritinib and TMZ and pelleted at select time points (3, 24, and 48 hours). For protein extraction, BTICs were lysed in modified radio-immunoprecipitation assay buffer supplemented with Complete Mini protease (Roche) and Halt phosphatase (Thermo Scientific) inhibitor cocktails. Protein concentrations were quantified using the BioRad protein assay; 20 μg of protein were loaded on 6% or 10% sodium dodecyl sulfate polyacrylamide gel electrophoresis (SDS PAGE) gels and transblotted to nitrocellulose membranes. Blots were stained with primary antibodies followed by horseradish peroxidase-conjugated secondary antibodies. Primary antibodies included p-STAT3 Y705 (1:1000; Cell Signaling Technology), STAT3 (1:1000; Cell Signaling Technology), p-Akt S473 (1:1000; Cell Signaling Technology), Akt (1:1000; Cell Signaling Technology), p-p44/42 MAPK (T202/Y204) (1:1000; Cell Signaling Technology), p44/42 MAPK (1:4000; Cell Signaling Technology), poly (ADP-ribose) polymerase (1:1000; Cell Signaling Technology), β-tubulin (1:1000; Cell Signaling Technology), and Actin (1:1000; Santa Cruz Biotechnology). Secondary antibodies included donkey anti-mouse (1:5000; Cell Signaling Technology), donkey anti-goat (1:5000; Millipore), and goat anti-rabbit (1:5000; Cell Signaling Technology). The blots were washed with tris-buffered saline and tween 20 (T-TBS) (50mM Tris, 150mM NaCl, 0.05% Tween 20, pH 7.6) and blocked with tris-buffered saline (TBS) before imaging. Bands were visualized with the SuperSignal West Pico chemiluminescent solution (Thermo Scientific) and an Amersham™ Imager 600 (General Electric).
# [2] = system: BT53; assay: alamarBlue BTIC viability assay, BT53; settings: Homo sapiens, read-out: IC50 (viability)
# Experimental: (§1) Accumax (eBioscience) was used to enzymatically dissociate BTIC spheres to single cells. Cells were seeded at 1000 cells per well in 96-well plates and treated with vehicle (DMSO) or drug, 24 hours after plating. BTIC viability was assessed after 7–14 days, once spheres were formed in control wells, by performing the alamarBlue™ (Invitrogen) assay per the manufacturer’s instructions. In brief, the alamar dye was added to each well and plates were read 6 hours later. Fluorescence intensity (excitation 540 nm; emission 590 nm) was measured on a SpectraMax M Series Multi-Mode Microplate reader. […] All experiments were performed in triplicate with a minimum of 3 wells per condition.
# (§2) BTICs were treated with suboptimal doses of 1 μM pacritinib (CTI Biopharma), 10 μg/mL TMZ (Sigma), or a combination of pacritinib and TMZ. […] Percent inhibition was determined by normalizing each well to the control well (0.1% DMSO).
# [3] = system: patient-derived GBM BTIC cultures; assay: alamarBlue viability assay, panel of BTIC cultures
# Experimental: as §1, §2
# [4] = human, in vivo, cited from earlier work
# [5] = system: BT50; assay: alamarBlue BTIC viability assay, BT50; assay type: cell-based; settings: Homo sapiens; BTIC line BT50, alamarBlue
# [6] = system: patient-derived GBM BTIC cultures; assay: neurosphere assay, all BTIC cultures tested; assay type: cell-based, human; settings: 5 μM
# [7] = system: BT48; assay: alamarBlue BTIC viability assay, BT48; assay type: cell-based; settings: Homo sapiens; BTIC line BT48, alamarBlue
# [8] = system: BT206 orthotopic xenograft; assay: Kaplan-Meier survival, orthotopic BT206 xenograft; assay type: in vivo; settings: BT206 xenografted mice; p < 0.0968 log-rank
# [9] = five-day pharmacokinetics by LC-MS, serum and brain; assay type: in vivo, mice; settings: SCID, mouse, five days, mean ± SD, N = 3; for concentration at 300 min: 300 minutes post-dosing; for concentration at 30 min: 30 minutes post-dosing
# Experimental: Animal studies were performed following institutional ethical guidelines and protocols approved by the University of Calgary Health Sciences Animal Care Committee, accredited by the Canadian Council on Animal Care (CCAC). Non-tumor bearing mice were treated with 100 or 200 mg/kg doses of pacritinib by oral gavage for five consecutive days. Three mice per group were used. Post-dosing, blood was collected at 30 and 300 minute time points. The serum was separated by centrifugation. Liquid chromatography-mass spectrometry (LC-MS) was performed to determine the serum concentration of pacritinib. To determine brain penetration, brains were harvested and processed at the 300 minute time point following transcardiac perfusion with PBS. Brains were removed and flash frozen at -80°C. Pacritinib accumulation in the brain was analyzed using LC-MS.
# [10] = system: BT147; assay: alamarBlue BTIC viability assay, BT147; assay type: cell-based; settings: Homo sapiens; BTIC line BT147, alamarBlue
# [11] = system: BT147 orthotopic xenograft; assay: Kaplan-Meier survival, orthotopic BT147 xenograft; assay type: in vivo; settings: BT147 xenografted mice
# Experimental: For Kaplan-Meier survival studies, BTIC spheres from BT53 or BT147 were dissociated to a single-cell suspension. Mice were anaesthetized using 10 mg/kg ketamine/xylazine. Buprenorphine (0.05 mg/kg) was administered once pre-operatively and once post-operatively to minimize animal suffering. 5 x 10^4 cells were stereotactically implanted into the right striata of 8- to 10-week-old female severe combined immunodeficient (SCID) mice, as previously described and approved by the University of Calgary Health Sciences Animal Care Committee, accredited by CCAC. Mice were randomized to vehicle or treatment cohorts, with a minimum of 8 mice per group, one week after cell implantation. For BT147, vehicle (Ora-Plus; Galenova), pacritinib (100 mg/kg), TMZ (30 mg/kg), or a combination of pacritinib (100 mg/kg) and TMZ (30 mg/kg), were administered via oral gavage. Animals completed a five-week regimen of three weekly treatments for a total of 15 treatments. For BT53, 100 mg/kg of pacritinib was administered twice per day alone or in combination with 50 mg/kg TMZ once per day, for one week via oral gavage. Following this, mice received 100 mg/kg pacritinib twice per day in combination with 10 mg/kg TMZ once per day for two weeks. Mice were euthanized with a lethal dose of sodium pentobarbital at a pre-defined humane endpoint. Specific criteria for the endpoint included: 20% weight loss, lack of grooming, inactivity, hind limb paralysis, and/or inability to eat or drink. The body weights were closely monitored throughout the course of the experiment. […] The presence of tumor was confirmed in the mice via necropsy and cranial dissection.
# [12] = system: BT69; assay: neurosphere assay, BT69; assay type: cell-based, human; settings: 3 μM
# [13] = system: BT53 orthotopic xenograft; assay: Kaplan-Meier survival, orthotopic BT53 xenograft; assay type: in vivo, mice; settings: BT53 xenografted mice, 100 mg/kg pacritinib, three weeks; p < 0.7237 log-rank
# Experimental: For Kaplan-Meier survival studies, BTIC spheres from BT53 or BT147 were dissociated to a single-cell suspension. Mice were anaesthetized using 10 mg/kg ketamine/xylazine. Buprenorphine (0.05 mg/kg) was administered once pre-operatively and once post-operatively to minimize animal suffering. 5 x 10^4 cells were stereotactically implanted into the right striata of 8- to 10-week-old female severe combined immunodeficient (SCID) mice, as previously described and approved by the University of Calgary Health Sciences Animal Care Committee, accredited by CCAC. Mice were randomized to vehicle or treatment cohorts, with a minimum of 8 mice per group, one week after cell implantation. For BT147, vehicle (Ora-Plus; Galenova), pacritinib (100 mg/kg), TMZ (30 mg/kg), or a combination of pacritinib (100 mg/kg) and TMZ (30 mg/kg), were administered via oral gavage. Animals completed a five-week regimen of three weekly treatments for a total of 15 treatments. For BT53, 100 mg/kg of pacritinib was administered twice per day alone or in combination with 50 mg/kg TMZ once per day, for one week via oral gavage. Following this, mice received 100 mg/kg pacritinib twice per day in combination with 10 mg/kg TMZ once per day for two weeks. […] The body weights were closely monitored throughout the course of the experiment. […]
compound,measurement,setting,value
C1=C/COCc2cc(ccc2OCCN2CCCC2)Nc2nccc(n2)-c2cccc(c2)COC/1 [pacritinib],p-STAT3 Y705,"[1]; BT53, 48 hours, 1 μM pacritinib, 10 μg/mL TMZ or both",dramatically reduced phosphorylation
same,STAT3 activation (phosphorylation on tyrosine 705),"[1]; BT53, low micromolar concentrations",decreased STAT3 activation
same,activated STAT3 (phosphorylation on tyrosine 705),"[1]; BT69, 3 hours",decreased activated STAT3
same,STAT3 activation (phosphorylation on tyrosine 705),"[1]; BT147, 1 μM",strongly decreased STAT3 activation
same,IC50,[2],920 nM
same,IC50,"[3]; Homo sapiens, read-out: IC50 values for the eleven BTIC cultures tested",620 to 1660 nM
same,viability reduced,"[3]; at 1.5 μM, in 10/11 BTIC cultures tested",50%
same,Cmax,[4]; 100 mg,7800 nM
same,mean maximum concentration (Cmax),[4]; 100 mg,3699 ng/mL
same,median time to maximum concentration (Tmax),[4],5 h
same,IC50,[5],620 nM
same,sphere formation,[6],completely inhibit sphere formation
same,IC50,[7],1030 nM
same,efficacy of treatment alone (Kaplan-Meier survival),[8],no efficacy
same,concentration at 300 min,"[9]; brain, 100 mg/kg oral gavage, read-out: [Brain]",910 ± 61 nM
same,concentration at 300 min,"[9]; brain, 200 mg/kg oral gavage, read-out: [Brain]",840 ± 20 nM
same,concentration at 30 min,"[9]; serum, 100 mg/kg oral gavage",2660 ± 720 nM
same,concentration at 300 min,"[9]; serum, 100 mg/kg oral gavage, read-out: [Serum]",510 ± 140 nM
same,concentration at 30 min,"[9]; serum, 200 mg/kg oral gavage",12600 ± 980 nM
same,concentration at 300 min,"[9]; serum, 200 mg/kg oral gavage, read-out: [Serum]",430 ± 120 nM
same,IC50,[10],990 nM
same,"survival advantage, single agent","[11]; 100 mg/kg pacritinib, p < 0.4649 log-rank",no survival advantage
same,median survival,"[11]; pacritinib 100 mg/kg, TMZ 30 mg/kg, oral, thrice weekly for five weeks, control 52 days",48 days
same,sphere formation,[12],completely abolished sphere formation
same,"survival advantage, single agent",[13],failed to provide a survival advantage

# Reference: paper PMC5734728, “The JAK2/STAT3 inhibitor pacritinib effectively inhibits patient-derived GBM brain tumor initiating cells in vitro and when used in combination with temozolomide increases survival in an orthotopic xenograft model” (PLoS ONE, 2017)
